Laboratory results published in paper PMC6831561, “Pharmacological and Behavioral Effects of the Synthetic Cannabinoid AKB48 in Rats” (Frontiers in Neuroscience, 2019).

Assays:
Format in all cases: in vivo
rats [1] = test: Visual placing response test
Description: Visual response was verified by two behavioral tests that evaluated the ability of the rat to capture visual information even when stationary (the visual object response) or when moving (the visual placing response). The visual object response test was used to evaluate the ability of the rat to see an object approaching from the front or the side, inducing the animal to shift or turn its head or to retreat (modified from [Ossato et al., 2015]; [Marti et al., 2019]). For the frontal visual response, a white horizontal bar was moved frontally to the rat’s head; the maneuver was repeated three times. For the lateral visual response, a small dentist’s mirror was moved into the rat’s field of view in a horizontal arc until the stimulus was between the rat’s eyes. The procedure was conducted bilaterally and was repeated three times. The score assigned was a value of 1 if there was a reflection in the rat movement or 0 if not. The total value was calculated by adding the scores obtained in the frontal with that obtained in the lateral visual object response (overall score 9). Evaluation of the visual object response was measured at 0, 10, 30, 60, 120, and 180 min post-injection. The visual placing response test was performed using a tail suspension-modified apparatus able to bring the rat toward the floor at a constant speed of 10 cm/sec (modified from [Ossato et al., 2015]; [Marti et al., 2019]). The downward movement of the rat was videotaped. Frame-by-frame analysis allowed us to evaluate the beginning of the reaction of the rat while it was close to the floor. When the rat started the reaction, an electronic ruler evaluated the perpendicular distance in millimeters between the eyes of the rat to the floor. The naïve rats perceived the floor and prepared for contact at a distance of about 27 ± 4.5 mm. Evaluation of the visual placing response was measured at 0, 15, 35, 65, 125, and 190 min post-injection.

rats [2] = test: Acoustic response test
Method: Acoustic response measures the reflex of the rat in reply to an acoustic stimulus produced behind the animal. Four acoustic stimuli of different intensities and frequencies were tested (see [Marti et al., 2019]). Each sound test was repeated three times, giving a value of 1 if there was a response and 0 if not present, for a total score of 3 for each sound. The acoustic total score was calculated by adding scores obtained in the four tests (overall score 12). Evaluation of the […] was measured at 0, 10, 30, 60, 120, and 180 min post-injection.

rats [3] = test: Core and surface body temperature
Method: To better assess the effects of the ligands on thermoregulation, we measured both changes in the core (rectal) and surface (ventral fur) temperature. The core temperature was evaluated by a probe (1 mm diameter) that was gently inserted, after lubrication with liquid Vaseline, into the rectum of the rat (to about 2 cm) and left in position until the stabilization of the temperature (about 10 sec; [De Luca et al., 2015]; [Vigolo et al., 2015]). The probe was connected to a Cole Parmer digital thermometer, model 8402. The surface temperature was measured by a Microlife FR 1DZ1 digital infrared thermometer, placed 1 cm from the surface of the abdomen of the rat ([Vigolo et al., 2015]). Core and surface body temperatures were measured at 0, 15, 35, 65, 125, and 190 min.

rats [4] = test: Conditioned place preference paradigm
Description: The CPP chambers consisted of two equally sized compartments interconnected by a guillotine door, adopting a classical conditioning procedure that has been successfully used to assess the rewarding properties of several drugs of abuse. The compartments are differentiated by both visual and tactile cues: the color of the walls in each compartment (white or black) and the texture of the floors (wooden flat or metal wired). The box was placed in a dimly illuminated room. Place conditioning morning sessions ran from 8:30 a.m. to noon, while afternoon sessions ran from 2:30 p.m. to 6 p.m.
According to the conditioned place preference paradigm, on day 0 (pre-test), rats freely explored the two compartments for 15 min, and the time spent in each compartment during the exploratory period was measured. Rats that spent 60–70% of the total time on one side were excluded from the experiment. We used an unbiased-like protocol and assigned the drug-paired compartment randomly. On days 1–3 (conditioning phase), male Sprague-Dawley rats (n = 24) were divided into three groups (n = 8 per group) and given injections of AKB48 (0.1 or 0.5 mg/kg) or vehicle twice daily (9:00 a.m. to 7:00 p.m.) and confined to one compartment for 30 min for 3 days. During these conditioning trials, the animals developed an association between the subjective state produced by the drug and the environmental cues present in the compartment in which they received the drug. On day 4 (test day), rats were allowed to explore the two compartments freely for 15 min, and the time spent in each compartment during the exploratory period was measured.
To evaluate if the aversive effect obtained with the higher dose of AKB48 (0.5 mg/kg) was mediated by activation of CB1 cannabinoid receptors, male Sprague-Dawley rats (n = 32) were divided into four groups (n = 8 per group). Group 1 received AKB48 vehicle in both compartments and served as a control. […] CB1 antagonist was injected 20 min before the agonist AKB48, which was given 10 min prior to the test.

rats [5] = test: Startle and pre-pulse inhibition
Method: As previously reported ([Marti et al., 2019]), rats were tested for acoustic startle reactivity in startle chambers (Ugo Basile apparatus, Milan, Italy) consisting of a sound-attenuated, lighted, and ventilated enclosure holding a transparent non-restrictive Perspex® cage (modified version for rats 200 × 90 × 80 mm). A loudspeaker mounted laterally by the holder produced all acoustic stimuli. Peaks and amplitudes of the startle response were detected by a load cell. At the onset of the startling stimulus, 300 ms readings were recorded, and the wave amplitude evoked by the movement of the rat startle response was measured. Acoustic startle test sessions consisted of startle trials (pulse-alone) and pre-pulse trials (pre-pulse + pulse). The pulse-alone trial consisted of a 40 ms 120 dB pulse. Pre-pulse + pulse trial sequences consisted of a 20 ms acoustic pre-pulse, 80 ms delay, and then a 40 ms, 120 dB startle pulse (100 ms onset–onset). There was an average of 15 s (range = from 9 to 21 s) between the trials. Each startle session began with a 10 min acclimation period with a 65 dB broadband white noise that was present continuously throughout the session. The test session contained 40 trials composed by pulse-alone and pre-pulse + pulse trials (with three different pre-pulses of 68, 75, and 85 dB) presented in a pseudorandomized order. Rats were placed in the startle chambers 5 min after treatment with AKB48. The entire startle/PPI test lasted 20 min. The pre-pulse inhibition (PPI) was expressed as the percentage decrease in the amplitude of the startle reactivity caused by the presentation of the pre-pulse. AKB48 (0.1–3 mg/kg i.p.) was administered intraperitoneally, and startle/PPI responses were recorded 15 min (including the 10 min acclimation period) after drug injections.

[6] = AM251 1 mg/kg i.p. before AKB48 3 mg/kg i.p.
[7] = AKB48 0.1–3 mg/kg i.p., 15 min after treatment

For `Cc1c(C(=O)NN2CCCCC2)nn(-c2ccc(Cl)cc2Cl)c1-c1ccc(I)cc1` [AM251, 1-(2,4-dichlorophenyl)-5-(4-iodophenyl)-4-methyl-N-(piperidin-1-yl)-1H-pyrazole-3-carboxamide, reference compound], the “visual placing response, AM251 alone” value (rats [1]; AM251 1 mg/kg i.p. alone) was “did not alter”, the “visual impairment (placing) induced by AKB48, after AM251 pre-treatment” value (rats [1]; AM251 1 mg/kg i.p. before AKB48 3 mg/kg) was “prevented” and the “acoustic response, AM251 alone” value (rats [2]; AM251 1 mg/kg i.p. alone (data not shown)) was “did not alter”. For the same compound, the “inhibition of acoustic response induced by AKB48, after AM251 pre-treatment” value (rats [2]; [6]) was “prevented”, the “response to AM251 alone in the body temperature section” value (rats [3]; AM251 1 mg/kg i.p. alone) was “did not alter” and the “hypothermia induced by AKB48, after AM251 pre-treatment” value (rats [3]; [6]) was “prevented”. For the same compound, the “aversive effect of AKB48 on place preference, with AM251” value (rats [4]; AM251 1 mg/kg i.p. + AKB48 0.5 mg/kg) was “blocked”, the “inhibitory effect of AKB48 on PPI at 68 dB, with AM251” value (rats [5]; AM251 1 mg/kg i.p. + AKB48) was “prevented” and the “inhibitory effect of AKB48 on PPI at 75 dB, with AM251” value (rats [5]; AM251 1 mg/kg i.p. + AKB48) was “prevented”. The “inhibitory effect of AKB48 on startle, with AM251” value (rats [5]; AM251 1 mg/kg i.p. + AKB48) was “prevented” and the “startle response, AM251 alone” value (rats [5]; AM251 1 mg/kg i.p. alone) was “did not modify”.

With `CCCCCn1nc(C(=O)NC23CC4CC(CC(C4)C2)C3)c2ccccc21` [AKB48, N-(1-adamantyl)-1-pentyl-1H-indazole-3-carboxamide] the “persistence of the reduction of visual placing response” value (rats [1]; AKB48 3 mg/kg i.p.) was “up to 190 min”, the visual placing response (rats [1]; AKB48 0.1–3 mg/kg i.p., 190 min observation) was “reduced” and the acoustic response (rats [2]; AKB48, only at the highest dose (3 mg/kg i.p.)) was “reduced”. The “persistence of the reduction of acoustic response” value (rats [2]; AKB48 highest dose (3 mg/kg i.p.)) was “up to 120 min”, the “time at which the core temperature effect was evident” value (rats [3]; AKB48 3 mg/kg i.p.) was 65 min and the surface body temperature (rats [3]; AKB48 0.1–3 mg/kg i.p.) was “did not affect”. The core body temperature (rats [3]; AKB48, only at 3 mg/kg i.p.) was “reduced”, the conditioned place preference (rats [4]; AKB48 0.1 mg/kg) was “ineffective” and the conditioned place preference (rats [4]; AKB48 0.5 mg/kg) was “significant aversive effect”. The “PPI at 68 dB of pre-pulse intensity” value (rats [5]; [7]) was “inhibited”, the “PPI at 75 dB of pre-pulse intensity” value (rats [5]; [7]) was “inhibited” and the inhibition at 3 mg/kg (rats [5]; Rattus norvegicus, 0.25 h, AKB48 3 mg/kg, 15 min after administration, read-out: inhibition of startle amplitude) was ~50%.
